# Experimental data reported in patent US20230338463A1, “ICD PEPTIDE AND USE THEREOF FOR HAVING CYTOTOXIC ACTIVITY ON CANCER CELLS” (NATIONAL TSING HUA UNIVERSITY, priority 2022, published 2023).
# Non-standard residues stand in square brackets, D forms with d. Residues, ends and D or L forms follow the SMILES beside them. 2Nal = N[C@@H](Cc1ccc2ccccc2c1)C(=O)O
# Key:
# PC 9 cells = assay: Luciferin-luciferase extracellular ATP, PC 9; assay type: cell-based, human; details: PC 9, 2 × IC50, peak at 0.5 hour
# Method: The ATP release from cancer cells were measured using the luciferin-luciferase assay as ATP release had been the iconic feature for immunogenic cell death (ICD).
# PC 9 cells were seeded in the 96 well plate at the density of 10,000 cells/ well and allowed to adhere for 48 hours in the condition described previously for MTT assay. […] All of the three ICD peptides were dissolved in the serum-free RPMI 1640 medium for the cells’ treatment. Cells were treated with serum-free RPMI 1640 medium containing PBS as the control group. After being treated for 0.5, 1, 1.5, and 2 hours, the supernatant of cells was collected separately and stored at -20° C. before the ATP assay. The aliquot of reconstituted rL/L reagent in the ENLITEN ATP assay kit (Promega, Madison, WI, USA) was incubated at room temperature for one hour before using. The collected supernatant of the cells was centrifuged at the speed of 500 xg for 10 minutes and took out 100 µL of the supernatant into the black 96 well plate with clear bottom to avoid cross-talk between wells. […] Measurement of the extracellular ATP chemiluminescence was completed using the Wallac VICTOR 3 Multilabel plate reader (PerkinElmer, Shelton, CT, USA)
# [1] = tested on: MN-11 cells (fibrosarcoma); assay: MN-11 fibrosarcoma tumor regression, intratumoral injection; assay type: in vivo
# Method: Female C57BL/6 wild-type mice (4–5 weeks old) were obtained from the BioLASCO Taiwan Co., Ltd (Taiwan). All mice were housed in a specific pathogen-free and controlled environment. During the experiments, female mice, weighing 18–24 g each, were kept in groups of 4 to 6 animals per cage under climate-controlled conditions, with 12 h light/dark cycles and an ambient temperature. The mice were housed in an enriched individually ventilated cage system with free access to standard rodent chow and water ad libitum. The animals were anesthetized during the experimental procedures with 2.5% isoflurane gas. The animals were monitored daily and large-tumor-bearing mice were euthanized with isoflurane. All the procedures were conducted according to the regulations of Laboratory Animal Care and Use Committee or Group Setup and Management and the law of Animal Protection. All animal experiments were approved by National Tsing Hua University (approval ID: 110016), and the protocol was approved by Institutional Animal Care and Use Committee.
# Pre-cultured MN-11 cells were harvested in a DMEM medium and inoculated total of 5×10^5 cells (mixed equal volume of matrigel) into the right flank of the abdomen in C57BL/6 mice with subcutaneous injection (6 mice/group). Palpable tumors (50-75 mm^3) were intratumorally injected (i.t.) with Nal-P-113 (1 mg/50 µl saline per mouse) for 3 consecutive days. Negative control (tumor only) mice received saline only (sterile H2O with 0.9% NaCl). Tumor size was measured every 2 days using a caliper, and the volume of tumors was calculated using the following formula: Tumor size (mm^3) = 0.5× (width^2×length). Animals were terminated when the tumor exceeded 2000 mm^3. The survival rates of tumor-bearing mice were observed and recorded continuously until all animals were dead. Additionally, the following were implemented as humane endpoints: signs of unacceptable pain, infection, severe ulceration, or surgical complications.
# To investigate the therapeutic potential of Nal-P-113 in vivo, MN-11 cells were subcutaneously implanted into C57BL/6 mice. After eight days post-implantation, tumor volumes reached 50-75 mm^3. Then all animals were injected intratumorally (i.t.) with 50 µl of PBS (Negative control; n=5) or […] Nal-P-113 (n=11). […] At the end of the experiments (35 days), 10 out of 11 animals were survived in the treatment group. […] Nal-P-113 treatment appeared to be nontoxic since no there were effects on the body weight and intake of the animals at the end of the experiment (FIG. 9D and FIG. 9E).
# MN-11 cells = assay: PI/Hoechst 33342 staining, plasma membrane integrity; assay type: cell-based, murine; details: MN-11, 2× IC50, 2 hrs, data not shown
# Method: To examine the membrane-lytic activities of peptides, the PI/Hoechst 33342 staining was performed in this embodiment. The PI dye was used to stain damaged/dead cells, and Hoechst 33342 was used to specifically stain the nuclei of living cells. MN-11 cells were seeded at 50,000 cells/well in a RPMI medium and allowed to adhere for 24 hours. Then the cells were replaced with serum-free RPMI medium, and then treated with 2× IC50 peptides at 37° C. for 2 hrs. DMEM medium without peptide was used as negative control. The PI and Hoechst 33342 were added at a final concentration of 1 µg/ml for 20 mins. The cells were observed using the inverted fluorescent microscope Zeiss equipped with a 40× oil objective lens (Carl Zeiss, Germany). The experiments were repeated three times independently
# To examine the membrane-lytic activities of Nal-P-113, Bip-P-113, and Dip-P-113, the DNA binding fluorescent dye Propidium iodide (PI) was used to stain damaged/dead cells, and Hoechst 33342 was used to specifically stain the nuclei of living cells.
compound,measurement,setting,value
"CC(=O)N[C@@H](C)C(=O)N[C@@H](CCCCN)C(=O)N[C@@H](CCCNC(=N)N)C(=O)N[C@@H](Cc1ccc2ccccc2c1)C(=O)N[C@@H](Cc1ccc2ccccc2c1)C(=O)NCC(=O)N[C@@H](Cc1ccc(O)cc1)C(=O)N[C@@H](CCCCN)C(=O)N[C@@H](CCCNC(=N)N)C(=O)N[C@@H](CCCCN)C(=O)N[C@@H](Cc1ccccc1)C(=O)N[C@@H](Cc1ccc2ccccc2c1)C(N)=O [SEQ ID NO:3, Ac-AKR Nal Nal GYKRKFNal-NH2] (Ac-AKR[2Nal][2Nal]GYKRKF[2Nal]-NH2)","ATP release, highest value (relative light unit)",PC 9 cells,"around 10,000 RLU"
same,toxicity (body weight and intake),"[1]; C57BL/6 mice, at the end of the experiment",nontoxic
same,animals survived,"[1]; end of the experiments (35 days), i.t. Nal-P-113 for 3 consecutive days, n=11",10 out of 11
same,complete regression of the tumor,"[1]; treatment group n=11, i.t.",5 animals
same,tumor recurrence,"[1]; treatment group n=11, i.t.",6 animals
same,plasma membrane integrity (PI entering cells),MN-11 cells,can cause damage to the plasma membrane integrity
